Legend:
[1] = test system: patient-derived GBM43 glioblastoma spheroids; test: GBM43 spheroid viability (Alamar blue); assay type: cell-based, human; details: three-dimensional spheroids
Procedure: Early-passage GBM43 cells were cultured in ultralow adherence plates (Corning Inc.) at 1 to 2×10^3 cells/mL in DMEM supplemented with 1% […] (Invitrogen), 2% B27 (Invitrogen), 25 ng/mL epidermal growth factor (EGF, 25 ng/mL fibroblast growth factor (FGF) (R&D Systems, Inc.), […], 2 ng/mL platelet growth factor, and 100 ng/mL each of penicillin and streptomycin (Invitrogen Inc.). Individual cells were recovered from spheres by incubation with Accutase (Sigma-Aldrich) for 10-15 minutes. Cells (50-100/well) were then seeded in fresh sphere-forming media in 96-well plates. After 2-3 days, Neurospheres containing 6 to 8 cells were treated with compounds 1, 2, and 5.
HEK-293 were cultured in DMEM with glutamine (Cellgro, Manassas, Va.) supplemented with 10% FBS and 1% penicillin/streptomycin in a 5% CO2 atmosphere at 37° C. Tumors were expanded by passage in the flank of NOD/SCIDγnull mice. To generate GBM43 cell lines, tumors were harvested, disaggregated, and maintained in 2.5% FBS for 14 days on Matrigel-coated plates (BD Biosciences) to remove murine fibroblasts. In-vitro GBM43 cell lines were propagated in DMEM with 10% FBS for no more than 7 passages. Cell line identity was confirmed by DNA fingerprint analysis (IDEXX BioResearch) for species and baseline short-tandem repeat analysis testing. GBM43 spheroids were generated by plating early-passage cells at 2.5×10^4 cells per well in 96-well ultralow attachment plates (Corning Inc.) in DMEM/F12 (1:1; GIBCO) supplemented with 2% B27 supplement (GIBCO), 20 ng/mL epidermal growth factor (EGF), and 20 ng/mL fibroblast growth factor (FGF) (Peprotech) for 2 days. The spheroids were then treated with compounds 1, 2, and 5 and growth analyzed by Alamar blue staining.

[2] = biological target: TEAD2 (Homo sapiens, UniProt Q15562); details: cited from earlier work
[3] = test system: CTGF transcript levels; test: qRT-PCR of CTGF transcript in GBM43 cells; assay type: cell-based, human; details: FIG. 8C
[4] = biological target: TEAD4.Yap1 interaction (Homo sapiens, UniProt Q15561); test: Fluorescence polarization, GST-TEAD4 with FAM-Yap60-99 peptide; assay type: binding; set-up: TEAD4 (217-434), TEAD4 (217-434) Cys367Ser mutant and Yap1 (Full-length) were expressed as GST-fusion proteins; made in house; host or cells: E. coli BL-21 (DE3), pGEX-6P-1; details: FP assay, 24 h at 4° C.
Procedure: (§1) GST-TEAD4, GST-TEAD4 Cys367Ser mutant or HIS-TEAD2 interaction with Yap1 was investigated using a fluorescently-labeled peptide (FAM-Yap60-99), consisting of FAM-labeled TEAD-binding peptide fragment of Yap1 (FAM-[…] TVPMCLRKLPASFCKPP), which has a disulfide bridge (American Peptide, Sunnyvale, Calif.). Addition of FAM-Yap60-99 to the TEAD was followed by measurement of changes in polarization. 40 μL of 125 nM GST-TEAD4 WT or GST-TEAD4 Cys367Ser in assay buffer (PBS with 0.01% v/v Triton-X100) or 40 μL of 64 nM HIS-TEAD2 was added to a 384-well black polystyrene plate (Cat. No. 262260; Nunc, Roskilde, Denmark) and incubated with 5 μL of […] serially diluted compounds in assay buffer supplemented with 20% v/v DMSO for 24 h at 4° C. Finally, 5 μL of 160 nM FAM-Yap60-99 peptide was added, the plate centrifuged, and the polarization was measured on an Envision Multilabel Plate Reader (PerkinElmer, Waltham, Mass.) using a filter set with excitation and emission wavelengths of 485 and 535 nm, respectively. Percent inhibition was calculated as relative to a minimum inhibition control, which is without compound, and a maximum inhibition control, which is without a TEAD.
For the determination of the inhibition efficiency kinact/K1, the protein compound incubation time was varied between […], prior to the addition of the FAM-Yap60-99 peptide and fluorescence polarization measurements. The progressive decrease in TEAD activities were plotted against time for all 10 concentrations ([…]) of the compounds and the observed rate of inhibition (kobs) was calculated by fitting a simple exponential function.
The observed rate of inhibition was then plotted against the concentration of the compound and a […] function kobs=kinact[Inhibitor]/K1+[Inhibitor] was fitted to determine the kinact and K1 values.

[5] = biological target: T1, TEAD2 binding to Yap1 (Homo sapiens, UniProt Q15562); test: Fluorescence polarization, HIS-TEAD2 with FAM-Yap60-99 peptide; details: 24 h at 4° C.
T1 construct: TEAD2 (217-447) was expressed as N-terminal HIS-fusion protein; made in house; host or cells: E. coli BL-21 (DE3), pET-28a
Procedure: as §1

[6] = biological target: Cav2.2 α·β protein-protein interaction (Homo sapiens, UniProt P54284); test: Fluorescence polarization, Cavβ3 with labeled α-subunit peptide; assay type: binding; details: 24 h at 4° C.
Source text: (§2) The selectivity of the compounds was explored with two unrelated protein-protein interactions between (i) the urokinase receptor (uPAR) and its ligand urokinase (uPA); and (ii) the a subunit of the voltage-gated calcium channel Cav2.2 with its β subunit Cavβ3. […] Both proteins have cysteine residues capable of forming covalent adducts.
(§3) FIG. 4D illustrates BLI measurements of the binding of TEAD4 to captured Yap when biotin-labeled GST-Yap1 was captured onto streptavidin-conjugated biolayer interferometry sensors which were dipped into varying concentrations of TEAD4. (mean±s.d.; n=3). […] FIG. 4F illustrates measured fluorescence polarization when increasing concentration of HIS-TEAD2 was mixed with 16 nM FAM-Yap60-99 peptide (mean±s.d.; n=3). FIG. 4G illustrates measured fluorescence polarization when HIS-TEAD2 was incubated with increasing concentration of compounds for 24 h at 4° C. followed by addition of FAM-Yap60-99 (mean±s.d.; n=3). FIG. 4H illustrates measured fluorescence polarization when urokinase receptor (uPAR) was incubated with varying concentrations of compounds for 24 h at 4° C. followed by addition of a urokinase-derived fluorescently-labeled peptide AE147 (mean±s.d.; n=3). […]

[7] = biological target: uPAR.uPA protein-protein interaction (Homo sapiens, UniProt Q03405); test: Fluorescence polarization, urokinase receptor with peptide AE147; assay type: binding; details: 24 h at 4° C.
Source text: as §2, §3

[8] = biological target: TEAD4 (Homo sapiens, UniProt Q15561); test: Whole protein ESI mass spectrometry, adduct formation; assay type: binding; set-up: TEAD4 (217-434), TEAD4 (217-434) Cys367Ser mutant and Yap1 (Full-length) were expressed as GST-fusion proteins; GST (N, cleaved yes); made in house; host or cells: E. coli BL-21 (DE3), pGEX-6P-1; details: 10 μM TEAD4, 200 μM compound, 24 h at 4° C.
Procedure: The samples were centrifuged at 20,000×g for […] to remove precipitants before being injected into an empty column on an Agilent 1200 liquid chromatography system (Agilent, Santa Clara, Calif.), using 80% Buffer A (H2O, 5 mM NH4OAc) and 20% Buffer B (ACN, 5 mM NH4OAc), and the masses were detected on an Agilent 6520 Accurate Mass Q-TOF.
It was determined whether a covalent bond formed between inventive compounds and TEAD4. […] The covalent adduct formation by compound 2 was relatively fast (FIG. 3G), reaching nearly 100% adduct formation after 30 min incubation with TEAD4. Because the rate of inhibition developed over a longer timescale (FIG. 3C), compound 2 is proposed to induce a slow conformational change in TEAD4 that prevents its interaction with Yap1. To rule out the possibility that compound 2 induces slow aggregation of TEAD4, and not the proposed slow conformational change, GST-TEAD4 was incubated with DMSO compound 2 for 24 h at 4° C., followed by injection into an SEC column (FIG. 3H). […] A slight increase in dimer formation for the TEAD4 sample incubated with compound 2 occurred compared to the sample incubated with DMSO. […] Furthermore, it is highly unlikely that Cys-367 oxidation was responsible for the lack of 100% inhibition at longer times since it has been shown that covalent bond formation is rapid and complete within less than an hour.

Chain of TEAD4.Yap1 interaction (Q15561 217-434): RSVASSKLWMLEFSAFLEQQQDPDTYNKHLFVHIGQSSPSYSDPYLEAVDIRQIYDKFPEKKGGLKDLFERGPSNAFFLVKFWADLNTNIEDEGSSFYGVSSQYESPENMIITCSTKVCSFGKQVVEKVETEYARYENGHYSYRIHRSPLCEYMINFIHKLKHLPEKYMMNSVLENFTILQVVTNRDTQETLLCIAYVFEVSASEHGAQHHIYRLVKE
T1 sequence (Q15562 217-447): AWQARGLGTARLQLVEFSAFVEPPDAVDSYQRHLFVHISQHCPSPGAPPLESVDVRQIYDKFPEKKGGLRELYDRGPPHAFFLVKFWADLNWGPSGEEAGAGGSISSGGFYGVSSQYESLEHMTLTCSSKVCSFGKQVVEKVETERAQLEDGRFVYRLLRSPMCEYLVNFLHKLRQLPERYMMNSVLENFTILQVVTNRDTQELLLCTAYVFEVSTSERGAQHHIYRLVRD
Chain of TEAD2 (Q15562 whole entry): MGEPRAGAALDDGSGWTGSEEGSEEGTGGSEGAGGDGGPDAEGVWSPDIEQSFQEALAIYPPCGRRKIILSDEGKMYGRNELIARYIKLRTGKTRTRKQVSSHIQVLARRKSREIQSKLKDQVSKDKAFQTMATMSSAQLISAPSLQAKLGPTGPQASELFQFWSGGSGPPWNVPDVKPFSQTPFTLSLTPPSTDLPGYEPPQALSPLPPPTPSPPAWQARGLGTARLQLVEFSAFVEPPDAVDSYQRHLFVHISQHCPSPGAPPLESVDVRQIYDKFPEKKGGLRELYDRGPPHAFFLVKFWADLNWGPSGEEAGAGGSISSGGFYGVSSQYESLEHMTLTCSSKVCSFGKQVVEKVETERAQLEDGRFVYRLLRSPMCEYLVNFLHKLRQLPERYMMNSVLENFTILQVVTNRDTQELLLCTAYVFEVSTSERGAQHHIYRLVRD
Chain of Cav2.2 α·β protein-protein interaction (P54284 whole entry): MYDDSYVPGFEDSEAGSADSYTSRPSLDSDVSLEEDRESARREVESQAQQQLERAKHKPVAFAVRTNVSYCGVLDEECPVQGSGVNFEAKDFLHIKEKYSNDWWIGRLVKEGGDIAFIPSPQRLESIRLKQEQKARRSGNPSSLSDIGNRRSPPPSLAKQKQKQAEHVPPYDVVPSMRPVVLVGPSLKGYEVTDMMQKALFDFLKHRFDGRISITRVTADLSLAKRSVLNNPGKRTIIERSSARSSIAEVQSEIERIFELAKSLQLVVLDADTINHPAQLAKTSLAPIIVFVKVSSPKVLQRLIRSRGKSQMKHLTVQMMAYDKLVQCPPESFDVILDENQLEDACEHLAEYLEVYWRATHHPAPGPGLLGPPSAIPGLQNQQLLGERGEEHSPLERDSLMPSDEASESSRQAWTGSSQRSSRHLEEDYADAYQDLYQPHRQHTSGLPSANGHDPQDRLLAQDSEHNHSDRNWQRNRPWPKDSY
Chain of uPAR.uPA protein-protein interaction (Q03405 23-305 limits assumed): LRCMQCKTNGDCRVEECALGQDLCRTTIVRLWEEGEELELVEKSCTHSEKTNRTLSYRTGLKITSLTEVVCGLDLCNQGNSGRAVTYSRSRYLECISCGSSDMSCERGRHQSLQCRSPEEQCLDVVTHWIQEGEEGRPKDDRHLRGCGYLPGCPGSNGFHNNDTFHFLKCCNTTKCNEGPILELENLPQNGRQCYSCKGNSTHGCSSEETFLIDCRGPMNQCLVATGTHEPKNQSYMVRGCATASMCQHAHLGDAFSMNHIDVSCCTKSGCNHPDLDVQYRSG
Chain of TEAD4 (Q15561 217-434): as the sequence (Q15561 217-434) above

| Structure (SMILES) | effect on GBM43 cancer cell viability / growth [1] | inhibition of TEAD binding to Yap [2] | binding to TEAD2 ([2]; two sites on TEAD2) | CTGF transcript levels versus vehicle [3] | inhibition of TEAD4.Yap1 interaction [4] | inhibition of TEAD2 binding to Yap1 [5] | inhibition of Cav2.2 α·β interaction [6] | inhibition of uPAR.uPA interaction [7] | covalent adduct formation with TEAD4 [8] |
| --- | --- | --- | --- | --- | --- | --- | --- | --- | --- |
| O=C(O)c1ccccc1Nc1cccc(C(F)(F)F)c1 [Compound 1, 2-((3-(trifluoromethyl)phenyl)amino)benzoic acid, reference compound] | did not affect | did not inhibit | binds weakly | no effect | did not inhibit | inactive | – | – | – |
| CCC(=O)c1ccccc1Nc1cccc(C(F)(F)F)c1 [Compound 3, 1-(2-((3-(trifluoromethyl)phenyl)amino)phenyl)propan-1-one] | – | – | – | – | did not inhibit | inactive | no inhibition | no inhibition | no adduct formation |

From US20210403415A1, “COMPOUNDS AND METHODS TO ATTENUATE TUMOR PROGRESSION AND METASTASIS” (THE TRUSTEES OF INDIANA UNIVERSITY, priority 2018, published 2021)
